Data on three compounds can be found in ChEMBL document CHEMBL3399921, “Novel 2-(2-phenalkyl)-1H-benzo[d]imidazoles as antitubercular agents. Synthesis, biological evaluation and structure-activity relationship” (Bioorg Med Chem, 2015).

≈ marks a conversion by molar mass, not a printed value.

The assay relates to Mycobacterium tuberculosis variant bovis. In words: Tuberculostatic activity against Mycobacterium bovis by two-fold classical test-tube method. Format: functional.
With `Cc1cc2nc(CCc3cc(Cl)cc(Cl)c3)[nH]c2cc1C`, the lowest concentration to inhibit growth (MIC) was 19 µM (≈ 6.07 µg/mL). Consider `Nc1c(NC(=O)CCc2cc(Cl)cc(Cl)c2)cc(Cl)cc1[N+](=O)[O-]`, for which the MIC (commonly the smallest concentration in the dilution series that meets the test's criterion for growth inhibition) amounted to 65 µM (≈ 25.3 µg/mL). The same measure for `Cc1cc2nc(CCc3ccccc3)[nH]c2cc1C`: 6.3 µM (≈ 1.58 µg/mL).
